Experimental data: patent publication US5597809A, “Treatment of optic neuritis” (priority 1994, dated 1997)
Entries after “also recorded” stand apart in the source; their conditions may differ. Read-outs that look alike come from different tables or passages of the source.

Columns and labels:
retinal ganglion cells [1] = test: Toxicity of other drugs to retinal ganglion cells and prevention by MK801 (FIG. 8); type: cell-based
Description: FIG. 8 is a bar graph showing prevention of drug toxicity by the protective agent, MK801. […] Retinal ganglion cells were incubated for 24 hours with either drug alone (5-fluorouracil (5-FU), Defororixamine, and Tamoxifenor drug +MK801, followed by measurement of cell viability.
As discussed above, other drugs are known to cause optic neuropathy (see Table 13). However, the mechanism of drug toxicity has not been defined. Experiments were carried out to determine whether NMDA antagonists prevented retinal cell damage induced by such drugs. […] The cytotoxic effect of these drugs on retinal ganglion cells was prevented by the NMDA antagonist, MK801.

retinal ganglion cells [2] = test: Attenuation of ethambutol toxicity by NMDA antagonists and a calcium channel blocker (retinal ganglion cell viability, FIG. 3); conditions: for retinal ganglion cell viability, drug alone: no ethambutol; for protection of retinal ganglion cells from ethambutol-mediated toxicity: 24 hours
[3] = system: M. tuberculosis and M. avium isolates; test: Minimal inhibitory concentration of ethambutol by radiometric Bactec technique with and without protective agents; type: cell-based, Mycobacterium tuberculosis; Mycobacterium avium
[4] = system: retinal ganglion cell layer; test: In vivo toxicity of ethambutol to the retina; conditions: 100 mg/kg daily, orally, 30 days
retinal ganglion cells [5] = test: cells; conditions: Rattus norvegicus, 24 h, read-out: half maximal effect of ethambutol toxicity to retinal ganglion cells, 24 hours incubation; viability by fluorescein diacetate
in vitro = conditions: rat, retinal ganglion cells
[6] = cited from earlier work
retinal ganglion cells [7] = test: Fura-2 intracellular calcium in retinal ganglion cells (response to NMDA and ethambutol); type: cell-based, rat; conditions: for effect on intracellular calcium, ethambutol alone: 10 μM ethambutol; for greater rise in intracellular calcium with ethambutol + NMDA than with NMDA alone: 10 μM ethambutol + 100 μM NMDA
Description: FIG. 6 is a bar graph showing the effect of ethambutol and Zn^2+ on the cellular response to NMDA. Dissociated retinal ganglion cells were labeled with the calcium sensitive dye, fura-2. 100 μM NMDA were then applied by puffer, and the peak intracellular calcium concentration measured (peak response occurred between 10 and 70 seconds after NMDA exposure for all cells). The indicated drugs were then applied in the following concentrations: 10 μM ethambutol (Eth) or 100 μM Zn^2+. Values are means ± standard deviations. Ethambutol + NMDA led to a 20% greater rise in intracellular calcium then NMDA alone. (*) indicates statistical difference by an analysis of variance (ANOVA) followed Scheffe multiple comparison of means, P<0.01. Ethambutol, NMDA, and Zn^2+ simultaneously led to the same rise seen with NMDA alone. Ethambutol alone or in combination with Zn^2+ had no effect under these conditions.
(§1) Neuronal intracellular free Ca^2+ concentration ([Ca^2+ ]i) was analyzed with fura-2 acetoxymethyl ester (fura 2-AM; Molecular Probes) following procedures known in the art. DiI labeled retinal ganglion cells were subsequently labeled with fura-2. Agonists (NMDA-glycine, glutamate, etc.) were applied by pneumatic pipettes (aperture […], 3-6 psi) placed 10-20 μm from the cells of interest. Data were analyzed via the Metamorph software package (Image 1).
There are several possible explanations for the finding that ethambutol toxicity to retinal ganglion cells is mediated through the NMDA receptor. A primary effect of NMDA is its known ability to increase intracellular calcium in neurons; this effect was monitored via the fluorescent dye, fura 2. Accordingly, dissociated retinal ganglion cells were labeled with fura-2. Ethambutol in concentrations from 1 nM to 1 mM was puffed onto retinal ganglion cells for periods of up to five minutes. No change was detected in 25 of 25 cells examined. As a control, 100 μM NMDA was subsequently puffed onto these cells, and in 23 of 25 cells the intracellular calcium rose to […] or higher.
Since a rise in intracellular calcium is one of the neuron's first responses to exogenously applied glutamate or NMDA, the following experiment was performed to detect changes in intracellular calcium. Dissociated retinal ganglion cells were labeled with the calcium sensitive dye, fura 2. Fura 2 allows for measurement of cytosolic calcium concentrations.
100 μM NMDA was applied to individual retinal ganglion cells, and the rise in intracellular calcium measured. The cells were then allowed to recover, and the intracellular calcium returned to baseline. 10 μM ethambutol and 100 μM NMDA were then simultaneously applied to the same cell (FIG. 6, second bar).
As a second experiment, 100 μM Zn^2+ chloride was added to the ethambutol/NMDA puffer. In the presence of 100 μM Zn^2+, 100 μM NMDA plus 10 μM ethambutol led to a rise in intracellular calcium that was indistinguishable from NMDA alone (FIG. 6, third bar). […] Accordingly, exogenous Zn^2+ reduced the NMDA/ethambutol response to the baseline NMDA response.

retinal cultures = test: Endogenous glutamate in retinal cultures by HPLC; type: cell-based, rat; conditions: overnight incubation with ethambutol
Description: The role of endogenous glutamate in ethambutol toxicity was evaluated. Endogenous glutamate in retinal cultures was 26±2 μM (mean ±standard deviation, n=12) (as measured by high pressure liquid chromatography).
This level of endogenous glutamate was not affected by overnight incubation with ethambutol. […] Nevertheless, experiments were carried out to determine whether endogenous glutamate was required for the expression of ethambutol toxicity in these preparations. […] The endogenous glutamate was specifically degraded by the addition of the enzyme glutamate-pyruvate transaminase (GPT) in the presence of the cosubstrate pyruvate.

[8] = system: all other cells of the retinal dissociations; test: Viability of the other cell types in dissociated retinal preparations exposed to ethambutol; type: cell-based, rat; conditions: increasing concentrations, 24 hours
Description: FIG. 1 is a line graph showing dose-dependent toxicity of ethambutol to retinal ganglion cells in vitro. Dissociated rodent retinal ganglion cells were incubated with increasing concentrations of ethambutol for 24 hours. The ability of cells to take up and cleave fluorescein diacetate was used as an index of their viability and lack of injury. […] Retinal ganglion cells (open circles) and all other cells (open squares) were scored separately for viability. […] (*) indicates statistical difference by an analysis of variance (ANOVA) followed by Scheffe multiple comparison of means, P<0.01. Values were normalized to control (n=1) and represent the means ± standard deviations of four experiments; at least 150 retinal ganglion cells scored for control values in each experiment.
Initial experiments were carried out in vitro. Freshly dissociated rat retinal preparations were exposed to increasing concentrations of ethambutol. […] Retinal cells were incubated in the presence of increasing concentrations of ethambutol, and scored for viability at 24 hours. Retinal ganglion cells were identified by the presence of DiI fluorescence.
Viability was assayed by uptake and cleavage of a second fluorescent dye, fluorescein diacetate. Ethambutol toxicity was detected only in retinal ganglion cells (FIG. 1, open circles). […]

retinal ganglion cells [9] = conditions: 10 μM ethambutol, within 24 hours
[10] = system: NMDA-evoked [Ca2+]i responses; test: Digital calcium imaging of NMDA-evoked [Ca2+]i responses; type: cell-based; conditions: 6 μM memantine, 200 μM NMDA
Description: It has now been discovered that memantine inhibits NMDA-evoked [Ca^2+ ]i responses. […] In fact, [Ca^2+ ]i rose only to levels associated with a low degree of NMDA receptor stimulation in the presence of memantine.
as §1

NMDA receptor = conditions: at the resting potential; cited from earlier work

Structure (SMILES): O=c1[nH]cc(F)c(=O)[nH]1 [5-FU, 5-fluorouracil]
- toxicity to retinal ganglion cells (retinal ganglion cells [1]): toxic to retinal ganglion cells

Structure (SMILES): NC(CCCP(=O)(O)O)C(=O)O (stereo not drawn) [APV, 2-amino-5-phosphonovalerate]
- retinal ganglion cell viability, drug alone (retinal ganglion cells [2]; 100 μM drug): did not affect cell viability

Structure (SMILES): N#Cc1cc2nc(O)c(O)nc2cc1[N+](=O)[O-] [CNQX, 6-cyano-7-nitroquinoxaline-2,3-dione]
- protection of retinal ganglion cells from ethambutol-mediated toxicity (retinal ganglion cells [2]; 100 μM drug with 10 μM ethambutol): ineffective at preventing ethambutol-mediated cell death
- retinal ganglion cell viability, drug alone (retinal ganglion cells [2]; 100 μM drug): did not affect cell viability

Structure (SMILES): CC(=O)N(O)CCCCCNC(=O)CCC(=O)N(O)CCCCCNC(=O)CCC(=O)N(O)CCCCCN [Defororixamine, deferoxamine]
- toxicity to retinal ganglion cells (retinal ganglion cells [1]): toxic to retinal ganglion cells

Structure (SMILES): C[C@]12N[C@H](Cc3ccccc31)c1ccccc12 [MK-801, dizocilpine]
- effect on the concentration of ethambutol necessary to kill mycobacterial strains ([3]; 12 μM agent): had no effect
- effect on the cytotoxic effect of 5-FU, Defororixamine and Tamoxifen on retinal ganglion cells (retinal ganglion cells [1]; drug + MK801, 24 hours): prevented
- protection of retinal ganglion cells from ethambutol-mediated toxicity (retinal ganglion cells [2]; 12 μM drug with 10 μM ethambutol): do protect retinal ganglion cells from ethambutol induced injury; also recorded: protect retinal ganglion cells from ethambutol-mediated toxicity
- retinal ganglion cell viability, drug alone (retinal ganglion cells [2]; 12 μM drug): did not affect cell viability

Structure (SMILES): CC/C(=C(\c1ccccc1)c1ccc(OCCN(C)C)cc1)c1ccccc1 [Tamoxifen]
- toxicity to retinal ganglion cells (retinal ganglion cells [1]; drug alone, 24 hours): toxic to retinal ganglion cells

Structure (SMILES): CC[C@@H](CO)NCCN[C@@H](CC)CO [ethambutol]
- loss of cells in the retinal ganglion cell layer versus control [4]: 18%
- other ocular pathology [4]: no other ocular pathology was detected
- EC50 (retinal ganglion cells [5]): 10 µM
- cytotoxicity at 24 h, 10 µM (in vitro): ≥ 50%
- patients developing optic neuropathy ([6]; patients taking ethambutol): up to 15%
- patients with permanent visual loss ([6]; patients taking ethambutol): up to 3%
- concentration ([6]; read-out: concentration in the cerebrospinal fluid, patients taking the drug orally): 10 µM
- change in intracellular calcium, ethambutol alone (retinal ganglion cells [7]; 1 nM to 1 mM puffed for up to five minutes, 25 of 25 cells): No change
- effect on intracellular calcium, ethambutol alone (retinal ganglion cells [7]): had no effect on intracellular calcium
- greater rise in intracellular calcium with ethambutol + NMDA than with NMDA alone (retinal ganglion cells [7]): ≥ 20%
- greater rise in intracellular calcium with ethambutol + NMDA than with NMDA alone (retinal ganglion cells [7]; listed as Ethambutol): 20%
- effect on intracellular calcium, ethambutol alone (retinal ganglion cells [7]; listed as Ethambutol): had no effect
- effect on the level of endogenous glutamate (retinal cultures): not affected
- ethambutol toxicity in other cell types [8]: No ethambutol toxicity
- retinal ganglion cells that died compared to sibling control cultures (retinal ganglion cells [9]): Approximately half

Structure (SMILES): CC12CC3CC(C)(C1)CC(N)(C3)C2.Cl [memantine, 1-amino-3,5-dimethyladamantane hydrochloride]
- effect on the concentration of ethambutol necessary to kill mycobacterial strains ([3]; 12 μM agent): had no effect
- protection of retinal ganglion cells from ethambutol-mediated toxicity (retinal ganglion cells [2]; 12 μM drug with 10 μM ethambutol, hydrochloride): do protect retinal ganglion cells from ethambutol induced injury; also recorded: protect retinal ganglion cells from ethambutol-mediated toxicity
- retinal ganglion cell viability, drug alone (retinal ganglion cells [2]; 12 μM drug): did not affect cell viability
- effect on excessive influx of calcium elicited by NMDA [10]: largely prevent
- Ki (NMDA receptor): 1 to 2 µM

Structure (SMILES): COCCOC(=O)C1=C(C)NC(C)=C(C(=O)OC(C)C)C1c1cccc([N+](=O)[O-])c1 (stereo not drawn) [nimodipine]
- effect on the concentration of ethambutol necessary to kill mycobacterial strains ([3]; 100 nM agent): had no effect
- protection of retinal ganglion cells from ethambutol-mediated toxicity (retinal ganglion cells [2]; 100 nM drug with 10 μM ethambutol): do protect retinal ganglion cells from ethambutol induced injury; also recorded: protect retinal ganglion cells from ethambutol-mediated toxicity
- retinal ganglion cell viability, drug alone (retinal ganglion cells [2]; 100 nM drug): did not affect cell viability
